Patent US9095589B2, “Chirally pure isomers of itraconazole for use as angiogenesis inhibitors” (Johns Hopkins University, priority 2007, dated 2015)
“Also recorded” adds a separate entry of the source. Like-named read-outs stand apart in the source and are kept apart here.

How the values were obtained:
HUVEC [1] = assay: HUVEC proliferation assay ([3H]-thymidine incorporation); type: cell-based, human; conditions: for IC50: Homo sapiens, HUVEC
Protocol: (§1) HUVEC were purchased from Cambrex Biosciences (Walkersvilie, Md.) and maintained in EGM-2 media (Cambrex) which contains VEGF, bFGF, and EGF. LPDS were purchased from Intracell. BAEC and Hela cells were maintained in DMEM media containing 10% FBS. Jurkat cells were maintained in RPMI media containing 10% FBS. In a typical experiment 5,000-10,000 cells/well in 0.2 mL EGM-2 media were allowed to adhere for 8 h and then incubated with drug for 36 h. Cells were pulsed with 1 μCi [^3H]-thymidine for 8 h (MP Biomedicals, 6.7 Ci/mmol), and harvested using trypsin onto glass fiber filters (Wallac, Turku, Finland). The readout was performed on a Perkin Elmer MicroBeta plate reader. Cells used were under five passages.
Endothelial cells form the inner lining of all blood vessels and constitute an essential part of new as well as pre-existing blood vessels. An endothelial cell proliferation assay was utilized to screen our clinical drug library. The screen was carried out in 96-well plates with each drug at a final concentration of 10 μM. Thus, HUVEC were incubated with drugs for 36 h and proliferation was measured by following incorporation of [3H]-thymidine for the final 8 h. The preliminary screen identified 210 existing drugs with at least 50% inhibition at 10 μM, which belong to multiple drug classes (FIG. 1a).

HUVEC [2] = assay: HUVEC Proliferation Assay of itraconazole stereoisomers; type: cell-based, human
Protocol: HUVEC were plated in a 96-well plate at a density of 2000 cells/well 199 μL media. After recovering overnight, cells were incubated for 24 hours with drugs added from 200×DMSO stocks. Next, cells were incubated with 0.9 μCi of [^3H]-thymidine for 6 h, washed once with PBS, trypsinized, and transferred to filtermats (Wallac) using a Mach III M Harvester 96 (Tomtec). The filtermats were then dried overnight. Using a 1450 Microbeta apparatus (Wallac), the amount of [^3H] at each position on the filtermat was determined by scintillation counting. Counts from vehicle only treated controls were used to normalize for maximum proliferation. Experiments were conducted in triplicate with multiple technical replicates for each data point. A four parameter logistic regression was used to determine IC50 values (GraphPad Prism [v4.03]).
(§2) After the quality of all stereoisomers was confirmed, the potency of each stereoisomer against HUVEC proliferation and fungal growth was determined (FIG. 7). HUVEC were incubated with drug or vehicle alone for 24 hours and then pulsed for 6 hours with [^3H]-thymidine, the incorporation of which was taken as a readout of cell proliferation. Inhibition of fungal growth was assayed by incubating five yeast strains with 2-fold serial dilutions of each stereoisomer for 30-60 hours depending on the strain, and then measuring the OD600 of the culture to quantitate growth. The minimum concentration capable of inhibiting growth by 80% (MIC80) was determined.

HUVEC [3] = assay: HUVEC cell cycle analysis (propidium iodide, FACS); type: cell-based, human
Excerpt: To delineate the mechanism of inhibition of endothelial cell proliferation by itraconazole, the effect on the cell cycle progression of HUVEC by fixing and staining cells with propidium iodide followed by FACS analysis was examined.

[4] = system: new blood vessel formation in Matrigel plugs; assay: Mouse Matrigel model of angiogenesis; type: in vivo; conditions: mice, 37.5 mg/kg i.p. once daily, Matrigel with VEGF and bFGF, 10 days
Protocol: To determine whether itraconazole inhibited angiogenesis in vivo, itraconazole was tested in a mouse Matrigel model. […] Female athymic nude 5-week old, 25-30 g mice were purchased from NO and treated in accordance with standard procedures. In all animal experiments the i.v. formulation of itraconazole was obtained from the Johns Hopkins Hospital Pharmacy. Control mice were treated with vehicle (40% hydroxypropyl-β-cyclodextrin, 2.5% propylene glycol, pH 4.5). Mice were pretreated for three days and then implanted subcutaneously with 0.5 mL of Matrigel (BD Biosciences) containing 100 ng/mL VEGF and 150 ng/mL bFGF. Drug treatment was continued daily for 10 days, mice were sacrificed, and plugs were harvested, fixed in neutral buffered formalin, and processed for histology using MAS-trichrome staining. A cross section of the entire Matrigel plug was photographed at 100× and erythrocyte-filled blood vessels were counted per field in a blinded manner. P-values comparing itraconazole versus vehicle treated mice were determined using the two-tailed Student's T-test; and the data are presented as mean±s.e.m.

BAEC [5] = assay: Cell cycle progression of BAEC; type: cell-based, bovine
[6] = system: human foreskin fibroblasts (HFF); assay: Human foreskin fibroblast proliferation (Calcein-AM); type: cell-based; conditions: 96 h with drug
Protocol: Human foreskin fibroblast (HFF) cells were cultured at passage 2 in DMEM low glucose, 10% fetal bovine serum, and 1% penicillin-streptomycin. Experiments were performed with 2,500 cells/well in 0.2 mL and incubated for 96 h with drug. Plates containing cells were washed once with PBS, incubated with 1 μM Calcein-AM (Molecular Probes) in PBS for 4 h, and read in a fluorescent plate reader. IC50 values were determined using four-parameter logarithmic analysis with GraphPad Prism and are presented as mean±s.e.m. for triplicate experiments.

BAEC [7] = assay: BAEC proliferation with or without free cholesterol ([3H]-thymidine); type: cell-based, bovine; conditions: for IC50: Bos taurus, DMEM 10% LPDS, 36 h
Protocol: BAEC were incubated in DMEM, 10% lipoprotein deficient serum (LPDS) with indicated concentrations of itraconazole (a) azalanstat (b) or TNP-470 (c) either alone or in combination with 40 μg/ml free cholesterol for 36 h. Cells were then pulsed with 1 μCi [^3H]-thymidine for 8 h before they are harvested for scintillation counting.
as §1
A hallmark of inhibitors of 14DM is that their potencies are dependent on the levels of cholesterol in cell culture medium. Thus, the potencies of both azalanstat and itraconazole in cell culture media either containing or lacking cholesterol was determined.

five yeast strains = assay: Fungal Susceptibility Assays (MIC80); type: cell-based, C. glabrata, C. neoformans, S. cerevisiae, C. albicans; conditions: four out of five strains
Excerpt: (§3) Pooled HUVEC and EGM-2 bullet kits were purchased from Lonza. Powdered RPMI 1640 media with L-glutamine and without sodium bicarbonate was purchased from Gibco. Amino acids, uracil, and agar were purchased from Sigma and morpholinepropanesulfonic acid (MOPS) was purchased from Fisher. Dimethyl Sulfoxide (DMSO) was purchased from J. T. Baker. C. glabrata strains BG1 (J. Infect. Dis. 1996, 173, 425-431) and BG2 (Genetics 1999, 151, 979-987), C. neoformans H99 (Am. J. Pathol. 1980, 101, 177-193), S. cerevisiae BY4741 (MATa, ura3, his3, leu2, met15), and C. albicans (ATCC 10261) were used.
Fungi were grown overnight in 5 mL YES supplemented 225 mg/L adenine, histidine, leucine, uracil, and lysine (supplemented YES) at 30° C. with shaking. […] Abs600 was measured using a plate reader (Bio-Tek Synergy HT) after vigorous shaking for 45 seconds to resuspend the cells. The background absorbance from noninoculated wells was subtracted and the absorbance of test wells was divided by that of wells treated with vehicle alone. […]
After the quality of all stereoisomers was confirmed, the potency of each stereoisomer against HUVEC proliferation and fungal growth was determined (FIG. 7). HUVEC were incubated with drug or vehicle alone for 24 hours and then pulsed for 6 hours with [^3H]-thymidine, the incorporation of which was taken as a readout of cell proliferation. […]

C. neoformans H99 = assay: Fungal Susceptibility Assay (MIC80), C. neoformans; type: cell-based
Excerpt: as §3
Fungi were grown overnight in 5 mL YES supplemented 225 mg/L adenine, histidine, leucine, uracil, and lysine (supplemented YES) at 30° C. with shaking. Cultures were diluted to 0.01 OD600 in RPMI (with L-glutamine, without sodium bicarbonate) which was supplemented with 2% glucose, 225 mg/L adenine, histidine, methionine, leucine, uracil, and lysine and buffered with 165 mM MOPS to 7.0 (complete RPMI). This solution was then further diluted 190-fold in complete RPMI in 96-well plates containing test compounds in a final volume of 150 μL. When practical, the intermediate RPMI dilution was bypassed and the overnight cultures were directly diluted to the appropriate OD600 in the RPMI solution that was added to the 96-well plates. Two-fold serial dilutions of the compounds were tested starting at 4 ug/mL with each well containing 0.125% vehicle (DMSO). The plates were incubated in a humidified environment at 30° C. with shaking for 30 hours except for experiments with C. neoformans which was incubated for 54 h. Abs600 was measured using a plate reader (Bio-Tek Synergy HT) after vigorous shaking for 45 seconds to resuspend the cells. The background absorbance from noninoculated wells was subtracted and the absorbance of test wells was divided by that of wells treated with vehicle alone. The percent of remaining growth for each drug concentration was averaged over 2-3 independent experiments, each with two technical replicates, and the minimum concentration giving 80% inhibition (MIC80) was determined.
as §2

[8] = 40 μg/ml free cholesterol, read-out: IC50, endothelial cell proliferation in the presence of cholesterol
[9] = no cholesterol, read-out: IC50, endothelial cell proliferation in the absence of cholesterol

CCC(C)n1ncn(-c2ccc(N3CCN(c4ccc(OC[C@@H]5CO[C@@](Cn6cncn6)(c6ccc(Cl)cc6Cl)O5)cc4)CC3)cc2)c1=O (single isomer, unassigned; diastereomer 4) [4R-cis diastereomer]
fold more potent than the 4S-cis stereoisomer, HUVEC proliferation (HUVEC [1]): about 20 fold
IC50 (HUVEC [1]): 0.056 ± 0.01 µM
potency against HUVEC proliferation (HUVEC [2]): slightly more potent than the cis-4S isomer

CCC(C)n1ncn(-c2ccc(N3CCN(c4ccc(OC[C@H]5CO[C@](Cn6cncn6)(c6ccc(Cl)cc6Cl)O5)cc4)CC3)cc2)c1=O (single isomer, unassigned; stereoisomer 4) [4S-cis stereoisomer]
effect on HUVEC cell cycle progression (HUVEC [3]): potently inhibits HUVEC cell cycle progression at the G1/S transition
IC50 (HUVEC [1]): 1.1 ± 0.13 µM

CCC(C)n1ncn(-c2ccc(N3CCN(c4ccc(OCC5COC(Cn6cncn6)(c6ccc(Cl)cc6Cl)O5)cc4)CC3)cc2)c1=O (racemic) [Itraconazole]
decrease in new blood vessel formation compared to vehicle-treated controls [4]: 67.5%
percentage of cells in G1 (BAEC [5]; Cholesterol): 66.2%
percentage of cells in G2/M (BAEC [5]; Cholesterol): 12.0%
percentage of cells in S (BAEC [5]; Cholesterol): 21.2%
percentage of cells in G1 (BAEC [5]; Control (no added cholesterol)): 77.0%
percentage of cells in G2/M (BAEC [5]; Control (no added cholesterol)): 12.0%
percentage of cells in S (BAEC [5]; Control (no added cholesterol)): 10.5%
IC50 (HUVEC [1]): 0.16 µM
IC50 [6]: > 20 µM
IC50 (BAEC [7]; [8]): 0.23 µM
IC50 (BAEC [7]; [9]): 0.044 µM

CO[C@@H]1[C@H](OC(=O)NC(=O)CCl)CC[C@]2(CO2)[C@H]1[C@@]1(C)O[C@@H]1CC=C(C)C [TNP-470]
potency on endothelial cell proliferation in absence versus presence of cholesterol (BAEC [7]; with or without 40 μg/ml free cholesterol): roughly equal potency

Nc1ccc(SC[C@@H]2CO[C@](CCc3ccc(Cl)cc3)(Cn3ccnc3)O2)cc1 [Azalanstat]
effect on HUVEC cell cycle progression (HUVEC [3]): blocked the cell cycle progression
percentage of cells in G1 (BAEC [5]; Cholesterol): 70.2%
percentage of cells in G2/M (BAEC [5]; Cholesterol): 10.0%
percentage of cells in S (BAEC [5]; Cholesterol): 19.4%
percentage of cells in G1 (BAEC [5]; Control (no added cholesterol)): 74.5%
percentage of cells in G2/M (BAEC [5]; Control (no added cholesterol)): 8.8%
percentage of cells in S (BAEC [5]; Control (no added cholesterol)): 16.8%
IC50 (BAEC [7]; [8]): 1.2 µM
IC50 (BAEC [7]; [9]): 0.31 µM

CC[C@@H](C)n1ncn(-c2ccc(N3CCN(c4ccc(OC[C@@H]5CO[C@@](Cn6cncn6)(c6ccc(Cl)cc6Cl)O5)cc4)CC3)cc2)c1=O [Compound 23b, 4-(4-(4-(4-(((2S,4R)-2-((1H-1,2,4-triazol-1-yl)methyl)-2-(2,4-dichlorophenyl)-1,3-dioxolan-4-yl)methoxy)phenyl)piperazin-1-yl)phenyl)-1-((R)-sec-butyl)-1H-1,2,4-triazol-5(4H)-one]
potency against HUVEC proliferation (HUVEC [2]): greatest antiangiogenic potential

CC[C@H](C)n1ncn(-c2ccc(N3CCN(c4ccc(OC[C@H]5CO[C@@](Cn6cncn6)(c6ccc(Cl)cc6Cl)O5)cc4)CC3)cc2)c1=O [Compound 23e, 4-(4-(4-(4-(((2S,4S)-2-((1H-1,2,4-triazol-1-yl)methyl)-2-(2,4-dichlorophenyl)-1,3-dioxolan-4-yl)methoxy)phenyl)piperazin-1-yl)phenyl)-1-((S)-sec-butyl)-1H-1,2,4-triazol-5(4H)-one]
antifungal potency (five yeast strains): roughly as potent as the cis-diastereomers; also recorded: about as potent as the cis diastereomers
fold less potent than 23g and 23h (C. neoformans H99): 2 fold
fold less potent than the best inhibitor (C. neoformans H99): 32 fold

CC[C@@H](C)n1ncn(-c2ccc(N3CCN(c4ccc(OC[C@H]5CO[C@@](Cn6cncn6)(c6ccc(Cl)cc6Cl)O5)cc4)CC3)cc2)c1=O [Compound 23f, 4-(4-(4-(4-(((2S,4S)-2-((1H-1,2,4-triazol-1-yl)methyl)-2-(2,4-dichlorophenyl)-1,3-dioxolan-4-yl)methoxy)phenyl)piperazin-1-yl)phenyl)-1-((R)-sec-butyl)-1H-1,2,4-triazol-5(4H)-one]
antifungal potency (five yeast strains): roughly as potent as the cis-diastereomers; also recorded: about as potent as the cis diastereomers
fold less potent than 23g and 23h (C. neoformans H99): 2 fold
fold less potent than the best inhibitor (C. neoformans H99): 32 fold

CC[C@H](C)n1ncn(-c2ccc(N3CCN(c4ccc(OC[C@@H]5CO[C@@](Cn6cncn6)(c6ccc(Cl)cc6Cl)O5)cc4)CC3)cc2)c1=O [Compound 23a, 4-(4-(4-(4-(((2S,4R)-2-((1H-1,2,4-triazol-1-yl)methyl)-2-(2,4-dichlorophenyl)-1,3-dioxolan-4-yl)methoxy)phenyl)piperazin-1-yl)phenyl)-1-((S)-sec-butyl)-1H-1,2,4-triazol-5(4H)-one]
potency against HUVEC proliferation (HUVEC [2]): greatest antiangiogenic potential
difference in potency between 23a and 23f (most and least potent), HUVEC proliferation (HUVEC [2]; 24 h with drug): greater than 4 fold
